As a reminder, the IC50 is the concentration at which inhibition is half-maximal. The melting point is the temperature, or range, at which the solid turns liquid. By inhibition is commonly meant how much of the control response was suppressed.

Each structure is given as a SMILES string. Where two headings read alike, the source gives them in different places.

One series has as its target PARP2 (Homo sapiens, UniProt Q9UGN5). The experiment in a line: PARP enzyme assay (PARP2). Type of series: biochemical. The text has this: Step 2: Ribosylation Reaction
A further series concerns PAR in UWB 1.289 cells. The series can be described thus: PAR inhibition in UWB 1.289 cells (western blot). The series is classed as cell-based, human. The conditions noted are these: for PAR % inhibition in UWB 1.289 @ 10 nM: 0.01 µM; for inhibition at 0.01 µM: Homo sapiens. How it is done: Example-3 UWB 1.289 cells were plated at a predetermined density in a 6-well plate in its respective media and plates were incubated at 37° C. and 5% CO2 overnight. After overnight incubation, the plates were treated with desired concentrations of the compound or DMSO and the plates were incubated at 37° C. and 5% CO2 as required for 24 hours. After completion of 24 hours incubation, total cell lysates were prepared from the treated samples. Lysates were analysed by western-blot analysis and probed with Human PAR specific monoclonal antibody or human specific beta-actin monoclonal antibody (loading control). Western-blot images were developed after exposing them to chemiluminescent substrate and images were captured on imaging system. Target specific bands and loading specific bands were measured using densitometric analysis. Densitometric values of target specific bands were normalized to loading control values. % inhibition of PAR was calculated relative to DMSO treated samples. Results: % inhibitions values are given below in Table-2: […]
On the technique in general: Immunoblotting shows a protein as a band on a membrane.

The target in the next series is PARP1 (Homo sapiens, UniProt P09874). The series can be described thus: PARP enzyme assay (PARP1, chemiluminescent histone ribosylation). The conditions noted are these: for % inhibition 10 nM / % inhibition 100 nM: PARP enzyme assay; for % inhibition 10 nM: 10 nM compound; for % inhibition 100 nM: 100 nM compound.
The mark [1] stands for this setting: UWB 1.289 cells, 10 nM, 24 hours, western blot relative to DMSO.
Setting [2] is: read-out: % inhibition 100 nM, PARP enzyme assay, 100 nM compound.
Setting [3] is: UWB1289, 24 h, read-out: PAR % inhibition in UWB 1.289 @ 10 nM, UWB 1.289 cells, 10 nM, 24 hours, western blot relative to DMSO.
[4] abbreviates: UWB1289, read-out: PAR % inhibition in UWB 1.289 @ 10 nM, UWB 1.289 cells, 10 nM, 24 hours, western blot relative to DMSO.

Chain of PARP1 (P09874 whole entry, species assumed): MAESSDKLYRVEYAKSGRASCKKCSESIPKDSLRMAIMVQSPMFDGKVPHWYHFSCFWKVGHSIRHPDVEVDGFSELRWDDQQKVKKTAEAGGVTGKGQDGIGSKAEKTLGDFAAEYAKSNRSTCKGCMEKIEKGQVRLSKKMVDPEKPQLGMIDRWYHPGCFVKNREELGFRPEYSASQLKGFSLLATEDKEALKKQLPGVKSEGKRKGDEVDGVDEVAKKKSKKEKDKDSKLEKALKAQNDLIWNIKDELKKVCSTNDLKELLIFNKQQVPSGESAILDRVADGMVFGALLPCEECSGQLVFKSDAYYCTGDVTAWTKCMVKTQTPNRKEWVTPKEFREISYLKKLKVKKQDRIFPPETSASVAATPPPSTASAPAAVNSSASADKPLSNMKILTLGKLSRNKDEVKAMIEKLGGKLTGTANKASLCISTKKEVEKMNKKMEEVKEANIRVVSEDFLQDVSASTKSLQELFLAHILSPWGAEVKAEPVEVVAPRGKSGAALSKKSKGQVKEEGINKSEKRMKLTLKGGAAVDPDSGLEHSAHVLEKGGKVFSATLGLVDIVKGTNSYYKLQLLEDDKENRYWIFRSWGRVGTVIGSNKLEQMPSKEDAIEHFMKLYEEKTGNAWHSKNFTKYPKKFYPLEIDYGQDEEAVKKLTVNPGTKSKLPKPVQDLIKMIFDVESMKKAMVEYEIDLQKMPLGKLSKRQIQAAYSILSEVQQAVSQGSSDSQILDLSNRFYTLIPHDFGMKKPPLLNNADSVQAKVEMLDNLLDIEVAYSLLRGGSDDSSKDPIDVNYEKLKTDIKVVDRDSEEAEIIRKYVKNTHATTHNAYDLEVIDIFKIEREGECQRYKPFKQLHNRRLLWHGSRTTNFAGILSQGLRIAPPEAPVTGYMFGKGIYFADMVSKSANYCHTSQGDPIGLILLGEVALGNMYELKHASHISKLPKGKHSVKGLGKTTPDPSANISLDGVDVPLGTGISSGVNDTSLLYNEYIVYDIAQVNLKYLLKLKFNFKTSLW
Chain of PARP2 (Q9UGN5 whole entry, species assumed): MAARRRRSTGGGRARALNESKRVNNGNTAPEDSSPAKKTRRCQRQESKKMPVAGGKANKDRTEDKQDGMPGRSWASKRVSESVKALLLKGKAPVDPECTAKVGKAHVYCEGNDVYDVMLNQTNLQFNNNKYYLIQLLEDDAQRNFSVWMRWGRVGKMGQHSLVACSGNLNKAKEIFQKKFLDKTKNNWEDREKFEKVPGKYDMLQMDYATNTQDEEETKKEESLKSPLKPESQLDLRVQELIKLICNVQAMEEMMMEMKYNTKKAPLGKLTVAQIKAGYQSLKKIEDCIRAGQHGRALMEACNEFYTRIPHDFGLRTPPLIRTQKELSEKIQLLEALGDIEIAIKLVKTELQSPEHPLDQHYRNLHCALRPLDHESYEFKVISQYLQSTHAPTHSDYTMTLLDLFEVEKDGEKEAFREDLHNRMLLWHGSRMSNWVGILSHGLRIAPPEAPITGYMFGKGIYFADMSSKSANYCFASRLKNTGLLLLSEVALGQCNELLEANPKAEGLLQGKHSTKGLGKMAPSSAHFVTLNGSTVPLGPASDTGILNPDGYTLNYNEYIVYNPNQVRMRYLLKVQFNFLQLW
Experimental for PARP1: 1) Coat 25 µL of histone solution onto a 384-well plate as described below: • Dilute 5x histone mixture 1:5 with PBS. • Add 25 µL of diluted histone solution to each well and incubate at 4° C. overnight. • Wash the plate three times using 100 µL PBST buffer (1x PBS containing 0.05% Tween20) per well. • Tap plate onto clean paper towel to remove liquid. • Block the wells by adding 100 µL of Blocking buffer 3 to every well. Incubate at room temperature for 1 h 15 minutes. • Wash plate three times with 100 µL PBST buffer as described above. • Tap plate onto clean paper towel to remove liquid.
1) Preparation of 1X PARP Buffer: • Prepare 1x PARP buffer by adding 1 part of 10x PARP buffer to 9 parts distilled water (v/v). To prepare 500 µL of 1X PARP buffer, add 50 µL 10X PARP Assay buffer to 450 µL of H2O and mix well.
2) Preparation of the Ribosylation master mixture: • N wells x (1.25 µL 10x PARP buffer + 1.25 µL 10X PARP Assay mixture + 2.5 µL Activated DNA + 7.5 µL distilled water). Add 12.5 µL to every well.
3) Preparation of the inhibitor solution: • 10 mM stock solution of the inhibitor was prepared in DMSO. From 10 mM stock solution, 250X concentrations of the inhibitor were made in DMSO. • 250X DMSO concentrations of the inhibitor were further diluted to 10X concentrations in 1X kinase buffer. • 2.5 µL (10X concentrations) of kinase buffer containing inhibitor was added to each well. • For the “Positive Control” and “Blank”, add 2.5 µL of kinase buffer containing DMSO (4%) was added. • The final DMSO concentration in the well was 0.4 %.
4) Preparation of the enzyme solution: • Thaw PARP1 enzyme on ice. Upon first thaw, briefly spin tube containing enzyme to recover full content of the tube. Calculate the amount of PARP1 required for the assay and dilute enzyme to 2.0 ng/µL with 1x PARP buffer. • Initiate reaction by adding 10 µL of diluted PARP1 enzyme to the wells designated “Positive Control” and “Test Inhibitor”. • To the wells designated as “Blank”, add 10 µL of 1X PARP buffer. • Centrifuge the plate at 1000 rpm for 30 seconds and incubate at room temperature for 60 min. • Discard the reaction mixture after 1 hour, and wash plate three times with 100 µL PBST buffer and tap plate onto clean paper towel as described above.
1) Preparation of Streptavidin-HRP: • Dilute Streptavidin-HRP 1:50 in Blocking buffer. • Add 25 µL of diluted Streptavidin-HRP to each well. Incubate for 30 min. at room temperature. • Wash three times with 100 µL PBST buffer and tap plate onto clean paper towel as above as described above.
2) Preparation of ECL substrate: • Just before use, mix on ice equal amounts of ELISA ECL Substrate A and ELISA ECL Substrate B and add 50 µL per well. • Immediately read the plate in microtiter-plate in Chemiluminescence setting. The “Blank” value is subtracted from all other values.

Consider `CC1(O)C(=O)N(c2cncc(Cc3n[nH]c(=O)c4cc(F)ccc34)c2)c2ccccc21` (single isomer, unassigned; (+)) [Example 7, (+)-7-Fluoro-4-((5-(3-hydroxy-3-methyl-2-oxoindolin-1-yl)pyridin-3-yl)methyl)phthalazin-1(2H)-one], for which the melting point fell in the range of 148 to 151 °C. On PARP2, the IC50 is below 10 nM. Besides, the “PAR % inhibition in UWB 1.289 @ 10 nM” value in the series with PAR in UWB 1.289 cells (setting [1]) is reported as “A (A represents >75% to 100%)”.

On to `CC1(O)C(=O)N(c2cncc(Cc3n[nH]c(=O)c4cc(F)ccc34)c2)c2ccc(F)cc21` (single isomer, unassigned; (+)) [Example 11, (+)-7-Fluoro-4-((5-(5-fluoro-3-hydroxy-3-methyl-2-oxoindolin-1-yl)pyridin-3-yl)methyl)phthalazin-1(2H)-one], for which the melting point fell in the range of 148 to 151 °C. On PARP1, this compound came in with an IC50 below 10 nM. Besides, the inhibition at 0.01 µM on PARP1 (read-out: % inhibition 10 nM, PARP enzyme assay, 10 nM compound) was in the range of 75 to 100%. In addition, the inhibition at 0.1 µM at PARP1 (setting [2]) lay within 75 to 100%. On PARP2, this compound registered an IC50 below 10 nM. Further, the “PAR % inhibition in UWB 1.289 @ 10 nM” value in the series with PAR in UWB 1.289 cells (setting [1]) was “A (A represents >75% to 100%)”.

Compound `CC1(O)C(=O)N(c2cncc(Cc3n[nH]c(=O)c4ccccc34)c2)c2ccc(F)cc21` (single isomer, unassigned; (+)) [Example 14, (+)-4-((5-(5-Fluoro-3-hydroxy-3-methyl-2-oxoindolin-1-yl)pyridin-3-yl)methyl)phthalazin-1(2H)-one] registered a melting point of 198 to 201 °C. Moreover, at PARP1, the IC50 is below 10 nM. Also, the “% inhibition 10 nM” value on PARP1 (0.01 µM) is “B (B represents >50% to ≤75%)”. On PARP1 (setting [2]), the inhibition at 0.1 µM was 75 to 100%. At PARP2, the IC50 was below 10 nM. Further, the “PAR % inhibition in UWB 1.289 @ 10 nM” value with PAR in UWB 1.289 cells (setting [1]) is listed as “A (A represents >75% to 100%)”.

With `CC1(O)C(=O)N(c2cc(Cc3n[nH]c(=O)c4ccccc34)ccn2)c2ccccc21` (single isomer, unassigned; (+)) [Example 20, (+)-4-((2-(3-Hydroxy-3-methyl-2-oxoindolin-1-yl)pyridin-4-yl)methyl)phthalazin-1(2H)-one], the melting point is 205 to 208 °C. At PARP1, the “% inhibition 10 nM” value is “A (A represents >75% to 100%)” and the “% inhibition 100 nM” value was “A (A represents >75% to 100%)”. On PARP1 (read-out: IC50 (nM)-PARP1), the half-maximal inhibitory concentration (IC50) is below 10 nM. Further, at PARP2, the IC50 was below 10 nM. For the same compound, the inhibition at 0.01 µM with PAR in UWB 1.289 cells (setting [3]) was in the range of 50 to 75%.

The compound `CC1(O)C(=O)N(c2cc(Cc3n[nH]c(=O)c4cc(F)ccc34)ccn2)c2ccccc21` (single isomer, unassigned; (+)) [Example 23, (+)-7-Fluoro-4-((2-(3-hydroxy-3-methyl-2-oxoindolin-1-yl)pyridin-4-yl)methyl)phthalazin-1(2H)-one] came in with a melting point of 167 to 170 °C. At PARP2, this compound came in with an IC50 below 10 nM. Moreover, the “PAR % inhibition in UWB 1.289 @ 10 nM” value with PAR in UWB 1.289 cells (setting [1]) was “D (D represents ≤25%)”.

As for `CC1(O)C(=O)N(c2cncc(Cc3n[nH]c(=O)c4cc(F)ccc34)c2)c2ccccc21` (single isomer, unassigned; (-)) [Example 8, (-)-7-Fluoro-4-((5-(3-hydroxy-3-methyl-2-oxoindolin-1-yl)pyridin-3-yl)methyl)phthalazin-1(2H)-one], the melting point was in the range of 138 to 141 °C. Further, at PARP2, the IC50 is below 10 nM. Also, the “PAR % inhibition in UWB 1.289 @ 10 nM” value in the series with PAR in UWB 1.289 cells (setting [1]) is reported as “C (C represents >25% to ≤50%)”.

In turn, `CC1(O)C(=O)N(c2cncc(Cc3n[nH]c(=O)c4cc(F)ccc34)c2)c2ccc(F)cc21` (single isomer, unassigned; (-)) [Example 12, (-)-7-Fluoro-4-((5-(5-fluoro-3-hydroxy-3-methyl-2-oxoindolin-1-yl)pyridin-3-yl)methyl)phthalazin-1(2H)-one] registered a melting point of 154 to 157 °C. Moreover, at PARP1, the “% inhibition 10 nM” value is “A (A represents >75% to 100%)” and the “% inhibition 100 nM” value was “A (A represents >75% to 100%)”. Further, the IC50 on PARP1 (read-out: IC50 (nM)-PARP1) is below 10 nM. This compound also registered an IC50 against PARP2 below 10 nM. Moreover, in the series on PAR in UWB 1.289 cells (setting [1]), the “PAR % inhibition in UWB 1.289 @ 10 nM” value was “D (D represents ≤25%)”.

Compound `CC1(O)C(=O)N(c2cncc(Cc3n[nH]c(=O)c4ccccc34)c2)c2ccc(F)cc21` (single isomer, unassigned; (-)) [Example 15, (-)-4-((5-(5-Fluoro-3-hydroxy-3-methyl-2-oxoindolin-1-yl)pyridin-3-yl)methyl)phthalazin-1(2H)-one] yielded a melting point of 197 to 200 °C. The “% inhibition 10 nM” value at PARP1 (0.01 µM) was “A (A represents >75% to 100%)”. Also, at PARP1, the “% inhibition 100 nM” value is “A (A represents >75% to 100%)”. The IC50 at PARP1 (read-out: IC50 (nM)-PARP1) was below 10 nM. The compound also showed an IC50 against PARP2 below 10 nM. Besides, the “PAR % inhibition in UWB 1.289 @ 10 nM” value with PAR in UWB 1.289 cells (setting [1]) is “D (D represents ≤25%)”.

Compound `CC1(O)C(=O)N(c2cc(Cc3n[nH]c(=O)c4cc(F)ccc34)ccn2)c2ccccc21` (single isomer, unassigned; (-)) [Example 22, (-)-7-Fluoro-4-((2-(3-hydroxy-3-methyl-2-oxoindolin-1-yl)pyridin-4-yl)methyl)phthalazin-1(2H)-one] displayed a melting point of 165 to 168 °C. On PARP2, this compound showed an IC50 below 10 nM. For the same compound, in the series with PAR in UWB 1.289 cells (setting [3]), the inhibition at 0.01 µM was in the range of 25 to 50%.

With `CC1(O)C(=O)N(c2cncc(Cc3n[nH]c(=O)c4ccccc34)c2)c2ccccc21` (centres unmarked) [Example 1, 4-((5-(3-Hydroxy-3-methyl-2-oxoindolin-1-yl)pyridin-3-yl)methyl)phthalazin-1(2H)-one], the melting point fell in the range of 110 to 113 °C. This compound displayed an IC50 at PARP1 below 10 nM. The inhibition at 0.01 µM at PARP1 (read-out: % inhibition 10 nM) lay within 75 to 100%. For the same compound, the inhibition at 0.1 µM on PARP1 (read-out: % inhibition 100 nM) was in the range of 75 to 100%. Also, the IC50 on PARP2 was below 10 nM. For the same compound, the inhibition at 0.01 µM in the series on PAR in UWB 1.289 cells (setting [4]) lay in the range of 50 to 75%.

Take `C[C@]1(O)C(=O)N(c2cncc(Cc3n[nH]c(=O)c4ccccc34)c2)c2ccccc21` [Example 2, (R)-(+)-4-((5-(3-Hydroxy-3-methyl-2-oxoindolin-1-yl)pyridin-3-yl)methyl)phthalazin-1(2H)-one]: the IC50 against PARP1 and against PARP2 was below 10 nM in each case. For the same compound, the inhibition at 0.01 µM in the series on PAR in UWB 1.289 cells (setting [3]) was 75 to 100%.

Take `C[C@@]1(O)C(=O)N(c2cncc(Cc3n[nH]c(=O)c4ccccc34)c2)c2ccccc21` [Example 3, (S)-(-)-4-((5-(3-Hydroxy-3-methyl-2-oxoindolin-1-yl)pyridin-3-yl)methyl)phthalazin-1(2H)-one]: the melting point lay within 94 to 97 °C. This compound returned an IC50 at PARP1 below 10 nM. At PARP2, the IC50 was below 10 nM. The inhibition at 0.01 µM with PAR in UWB 1.289 cells (setting [3]) is below 25%.

`CC1(O)C(=O)N(c2cc(Cc3n[nH]c(=O)c4cc(F)ccc34)ccn2)c2ccccc21` (centres unmarked) [Example 21, 7-Fluoro-4-((2-(3-hydroxy-3-methyl-2-oxoindolin-1-yl)pyridin-4-yl)methyl)phthalazin-1(2H)-one] displayed a melting point of 187 to 189 °C. On PARP2, the IC50 was above 10 nM. In addition, the inhibition at 0.01 µM with PAR in UWB 1.289 cells (setting [4]) was 25 to 50%.

The compound `CC1(O)C(=O)N(c2cc(Cc3n[nH]c(=O)c4cc(F)ccc34)ccn2)c2ccc(F)cc21` (centres unmarked) [Example 24, 7-Fluoro-4-((2-(5-fluoro-3-hydroxy-3-methyl-2-oxoindolin-1-yl)pyridin-4-yl)methyl)phthalazin-1(2H)-one] gave a melting point of 225 to 228 °C. This compound also showed an IC50 against PARP1 below 10 nM. The same compound yielded an IC50 at PARP2 below 10 nM. Moreover, in the series with PAR in UWB 1.289 cells (setting [4]), the inhibition at 0.01 µM lay in the range of 25 to 50%.

As for `O=C1N(c2cncc(Cc3n[nH]c(=O)c4ccccc34)c2)c2ccccc2C1(O)C(F)(F)F` (centres unmarked) [Example 25, 4-((5-(3-Hydroxy-2-oxo-3-(trifluoromethyl)indolin-1-yl)pyridin-3-yl)methyl)phthalazin-1(2H)-one], the melting point was in the range of 258 to 260 °C. This compound also yielded an IC50 against PARP1 below 10 nM. Also, the inhibition at 0.01 µM on PARP1 (read-out: % inhibition 10 nM) lay in the range of 75 to 100%. In addition, the inhibition at 0.1 µM at PARP1 (read-out: % inhibition 100 nM) is 75 to 100%. The same compound returned a 50% inhibitory concentration (IC50) at PARP2 below 10 nM. For the same compound, the inhibition at 0.01 µM with PAR in UWB 1.289 cells (setting [4]) was in the range of 25 to 50%.

These data come from patent US20230234938A1 (RHIZEN PHARMACEUTICALS AG, priority 2020, published 2023).
